Assay results published in patent publication US20140303373A1, “CRYSTALLINE FORM OF TIOTROPIUM BROMIDE” (CERBIOS-PHARMA SA, priority 2013, published 2014).

Assays:
[1] = accelerated stability study, related substances by HPLC (Eur. Ph. 07/2010:2420); type: physicochemical
Description: The tiotropium bromide accelerated stability studies were performed storing the drug substance, prepared as described in the previous examples, at 40±2° C./75±5% RH. Stability was evaluated in dark glass vial with screw cap. The frequency of the analyses performed has included five test points: 0, 7 days, 1, 3, and 6 months. Related substances amount of tiotropium bromide was measured by HPLC, following the Eur. Ph. procedure (07/2010:2420).

[2] = stability at 25° C./60% relative humidity (impurity profile and X-ray spectrum); type: physicochemical

For `C[N+]1(C)C2CC(OC(=O)C(O)(c3cccs3)c3cccs3)CC1[C@@H]1O[C@H]21.[Br-]` (some centres unmarked) [Tiotropium Bromide], the “impurity profile and X-ray spectrum on storage” value ([1]; 40° C./75% RH) was “did not change for at least six months”, the “Related substances: Impurity A, RRT 0.40-0.47” value ([1]; 40±2° C./75±5% RH, 7 days) was 0.02 and the “Related substances: Impurity B, RRT 0.79-0.84” value (“Related substances: Impurity B” for short) ([1]; 40±2° C./75±5% RH, 7 days) was 0.04. For the same compound, the “Related substances: unnamed, RRT 0.98” value ([1]; 40±2° C./75±5% RH, 7 days) was 0.03, the “Related substances: unnamed, RRT 1.21-1.35” value ([1]; 40±2° C./75±5% RH, 7 days) was 0.01 and the “Related substances: unnamed, RRT 1.22-1.37” value ([1]; 40±2° C./75±5% RH, 7 days) was 0.02. For the same compound, the Sum of impurities ([1]; 40±2° C./75±5% RH, 7 days) was 0.12, the “Tiotropium Bromide, RRT 1.00 (HPLC)” value ([1]; 40±2° C./75±5% RH, 7 days) was 99.88 and the “Related substances: Impurity A, RRT 0.40-0.47” value ([1]; 40±2° C./75±5% RH, 30 d) was 0.02. For the same compound, the “Related substances: Impurity B” value ([1]; 40±2° C./75±5% RH, 30 d) was 0.04, the “Related substances: unnamed, RRT 0.98” value ([1]; 40±2° C./75±5% RH, 30 d) was 0.03 and the “Related substances: unnamed, RRT 1.22-1.37” value ([1]; 40±2° C./75±5% RH, 30 d) was 0.03. For the same compound, the Sum of impurities ([1]; 40±2° C./75±5% RH, 30 d) was 0.12, the “Tiotropium Bromide, RRT 1.00 (HPLC)” value ([1]; 40±2° C./75±5% RH, 30 d) was 99.88 and the “Related substances: Impurity A, RRT 0.40-0.47” value ([1]; 40±2° C./75±5% RH, 90 d) was 0.02. The “Related substances: Impurity B” value ([1]; 40±2° C./75±5% RH, 90 d) was 0.04, the “Related substances: Impurity E, RRT 1.73” value ([1]; 40±2° C./75±5% RH, 90 d) was 0.01 and the “Related substances: unnamed, RRT 0.39” value ([1]; 40±2° C./75±5% RH, 90 d) was 0.02. The “Related substances: unnamed, RRT 0.98” value ([1]; 40±2° C./75±5% RH, 90 d) was 0.02, the “Related substances: unnamed, RRT 1.21-1.35” value ([1]; 40±2° C./75±5% RH, 90 d) was 0.02 and the “Related substances: unnamed, RRT 1.22-1.37” value ([1]; 40±2° C./75±5% RH, 90 d) was 0.03. The “Related substances: unnamed, RRT 1.50-1.53” value ([1]; 40±2° C./75±5% RH, 90 d) was 0.01, the Sum of impurities ([1]; 40±2° C./75±5% RH, 90 d) was 0.17 and the “Tiotropium Bromide, RRT 1.00 (HPLC)” value ([1]; 40±2° C./75±5% RH, 90 d) was 99.83. The “Related substances: Impurity A, RRT 0.40-0.47” value ([1]; 40±2° C./75±5% RH, 180 d) was 0.02, the “Related substances: Impurity B” value ([1]; 40±2° C./75±5% RH, 180 d) was 0.04 and the “Related substances: unnamed, RRT 0.98” value ([1]; 40±2° C./75±5% RH, 180 d) was 0.02. The “Related substances: unnamed, RRT 1.21-1.35” value ([1]; 40±2° C./75±5% RH, 180 d) was 0.02, the “Related substances: unnamed, RRT 1.22-1.37” value ([1]; 40±2° C./75±5% RH, 180 d) was 0.03 and the “Related substances: unnamed, RRT 1.50-1.53” value ([1]; 40±2° C./75±5% RH, 180 d) was 0.01. The Sum of impurities ([1]; 40±2° C./75±5% RH, 180 d) was 0.14, the “Tiotropium Bromide, RRT 1.00 (HPLC)” value ([1]; 40±2° C./75±5% RH, 180 d) was 99.86 and the “Related substances: Impurity A, RRT 0.40-0.47” value ([1]; 40±2° C./75±5% RH, Time 0) was 0.02. The “Related substances: Impurity B” value ([1]; 40±2° C./75±5% RH, Time 0) was 0.04, the “Related substances: unnamed, RRT 0.98” value ([1]; 40±2° C./75±5% RH, Time 0) was 0.03 and the “Related substances: unnamed, RRT 1.21-1.35” value ([1]; 40±2° C./75±5% RH, Time 0) was 0.01. For the same compound, the “Related substances: unnamed, RRT 1.22-1.37” value ([1]; 40±2° C./75±5% RH, Time 0) was 0.02, the “Related substances: unnamed, RRT 1.50-1.53” value ([1]; 40±2° C./75±5% RH, Time 0) was 0.01 and the Sum of impurities ([1]; 40±2° C./75±5% RH, Time 0) was 0.13. For the same compound, the “Tiotropium Bromide, RRT 1.00 (HPLC)” value ([1]; 40±2° C./75±5% RH, Time 0) was 99.87 and the “impurity profile and X-ray spectrum on storage” value [2] was “did not change for at least six months”.
